Laboratory results taken from PubChem BioAssay (NCI).
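Method: 48-hour compound exposure of cells in 96-well plates, five concentrations, linear interpolation of endpoints. GI50 marks 50% less growth. At the TGI there is no net growth.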

Legend:
Assay in all cases: NCI tumour cell line growth inhibition, 48 h
786-0 renal = test system: 786-0 renal
A498 renal = test system: A498 renal
A549 NSCLC = test system: A549 NSCLC
ACHN renal = test system: ACHN renal
BT-549 breast = test system: BT-549 breast
CAKI-1 renal = test system: CAKI-1 renal
CCRF-CEM leukemia = test system: CCRF-CEM leukemia
COLO 205 colon = test system: COLO 205 colon
DU-145 prostate = test system: DU-145 prostate
EKVX NSCLC = test system: EKVX NSCLC
HCC-2998 colon = test system: HCC-2998 colon
HCT-116 colon = test system: HCT-116 colon
HCT-15 colon = test system: HCT-15 colon
HL-60(TB) leukemia = test system: HL-60(TB) leukemia
HOP-62 NSCLC = test system: HOP-62 NSCLC
HOP-92 NSCLC = test system: HOP-92 NSCLC
HS 578T breast = test system: HS 578T breast
HT29 colon = test system: HT29 colon
IGROV1 ovarian = test system: IGROV1 ovarian
K-562 leukemia = test system: K-562 leukemia
KM12 colon = test system: KM12 colon
LOX IMVI melanoma = test system: LOX IMVI melanoma
M14 melanoma = test system: M14 melanoma
MALME-3M melanoma = test system: MALME-3M melanoma
MCF7 breast = test system: MCF7 breast
MDA-MB-231 breast = test system: MDA-MB-231 breast
MDA-MB-435 = test system: MDA-MB-435
MOLT-4 leukemia = test system: MOLT-4 leukemia
NCI-H226 lung = test system: NCI-H226 lung
NCI-H23 lung = test system: NCI-H23 lung
NCI-H460 lung = test system: NCI-H460 lung
NCI-H522 lung = test system: NCI-H522 lung
NCI/ADR-RES ovarian = test system: NCI/ADR-RES ovarian
OVCAR-3 ovarian = test system: OVCAR-3 ovarian
OVCAR-4 ovarian = test system: OVCAR-4 ovarian
OVCAR-5 ovarian = test system: OVCAR-5 ovarian
OVCAR-8 ovarian = test system: OVCAR-8 ovarian
PC-3 prostate = test system: PC-3 prostate
RPMI-8226 leukemia = test system: RPMI-8226 leukemia
RXF 393 renal = test system: RXF 393 renal
SF-268 CNS = test system: SF-268 CNS
SF-295 CNS = test system: SF-295 CNS
SF-539 CNS = test system: SF-539 CNS
SK-MEL-2 melanoma = test system: SK-MEL-2 melanoma
SK-MEL-28 melanoma = test system: SK-MEL-28 melanoma
SK-MEL-5 melanoma = test system: SK-MEL-5 melanoma
SK-OV-3 ovarian = test system: SK-OV-3 ovarian
SN12C renal = test system: SN12C renal
SNB-19 CNS = test system: SNB-19 CNS
SNB-75 CNS = test system: SNB-75 CNS
SR leukemia = test system: SR leukemia
SW-620 colon = test system: SW-620 colon
T-47D breast = test system: T-47D breast
TK-10 renal = test system: TK-10 renal
U251 CNS = test system: U251 CNS
UACC-257 melanoma = test system: UACC-257 melanoma
UACC-62 melanoma = test system: UACC-62 melanoma
UO-31 renal = test system: UO-31 renal

O=C(N/N=C/c1cc(Cl)ccc1O)c1ccccc1Nc1ccnc(C(F)(F)F)c1
GI50 (786-0 renal): 0.465 µM | TGI (786-0 renal): 4.29 µM | GI50 (A498 renal): 0.585 µM | TGI (A498 renal): 7.9 µM | GI50 (A549 NSCLC): 1.26 µM | TGI (A549 NSCLC): 23.3 µM | GI50 (ACHN renal): 0.3 µM | TGI (ACHN renal): 11.2 µM | GI50 (BT-549 breast): 1.08 µM | TGI (BT-549 breast): 25.7 µM | GI50 (CAKI-1 renal): 0.405 µM | TGI (CAKI-1 renal): 3.87 µM | GI50 (CCRF-CEM leukemia): 0.127 µM | TGI (CCRF-CEM leukemia): 1.51 µM | GI50 (COLO 205 colon): 0.36 µM | TGI (COLO 205 colon): 13 µM | GI50 (DU-145 prostate): 0.362 µM | TGI (DU-145 prostate): 18.8 µM | GI50 (EKVX NSCLC): 0.25 µM | TGI (EKVX NSCLC): 4.86 µM | GI50 (HCC-2998 colon): 0.476 µM | TGI (HCC-2998 colon): 17.1 µM | GI50 (HCT-116 colon): 0.27 µM | TGI (HCT-116 colon): 13.1 µM | GI50 (HCT-15 colon): 0.152 µM | TGI (HCT-15 colon): 13.6 µM | GI50 (HL-60(TB) leukemia): 0.225 µM | TGI (HL-60(TB) leukemia): 0.937 µM | GI50 (HOP-62 NSCLC): 0.334 µM | TGI (HOP-62 NSCLC): 3.65 µM | GI50 (HOP-92 NSCLC): 0.833 µM | TGI (HOP-92 NSCLC): 12.1 µM | GI50 (HS 578T breast): 1.15 µM | TGI (HS 578T breast): 10.5 µM | GI50 (HT29 colon): 1.95 µM | TGI (HT29 colon): 18.3 µM | GI50 (IGROV1 ovarian): 0.361 µM | TGI (IGROV1 ovarian): 13.3 µM | GI50 (K-562 leukemia): 0.686 µM | TGI (K-562 leukemia): 14.5 µM | GI50 (KM12 colon): 0.604 µM | TGI (KM12 colon): 11.5 µM | GI50 (LOX IMVI melanoma): 0.263 µM | TGI (LOX IMVI melanoma): 12 µM | GI50 (M14 melanoma): 0.407 µM | TGI (M14 melanoma): 2.26 µM | GI50 (MALME-3M melanoma): 0.839 µM | TGI (MALME-3M melanoma): 5.29 µM | GI50 (MCF7 breast): 0.351 µM | TGI (MCF7 breast): 30.3 µM | GI50 (MDA-MB-231 breast): 0.54 µM | TGI (MDA-MB-231 breast): 21.1 µM | GI50 (MDA-MB-435): 1.16 µM | TGI (MDA-MB-435): 16.9 µM | GI50 (MOLT-4 leukemia): 0.241 µM | TGI (MOLT-4 leukemia): 6.27 µM | GI50 (NCI-H226 lung): 0.769 µM | TGI (NCI-H226 lung): 7.71 µM | GI50 (NCI-H23 lung): 1.31 µM | TGI (NCI-H23 lung): 16.3 µM | GI50 (NCI-H460 lung): 0.323 µM | TGI (NCI-H460 lung): 10.5 µM | GI50 (NCI-H522 lung): 0.689 µM | TGI (NCI-H522 lung): 6.53 µM | GI50 (NCI/ADR-RES ovarian): 0.473 µM | TGI (NCI/ADR-RES ovarian): 9.03 µM | GI50 (OVCAR-3 ovarian): 0.472 µM | TGI (OVCAR-3 ovarian): 9.86 µM | GI50 (OVCAR-4 ovarian): 0.299 µM | TGI (OVCAR-4 ovarian): 35 µM | GI50 (OVCAR-5 ovarian): 1.67 µM | TGI (OVCAR-5 ovarian): 25.6 µM | GI50 (OVCAR-8 ovarian): 0.493 µM | TGI (OVCAR-8 ovarian): 15.5 µM | GI50 (PC-3 prostate): 1.01 µM | TGI (PC-3 prostate): 35.6 µM | GI50 (RPMI-8226 leukemia): 0.174 µM | TGI (RPMI-8226 leukemia): 1.2 µM | GI50 (RXF 393 renal): 0.517 µM | TGI (RXF 393 renal): 14.1 µM | GI50 (SF-268 CNS): 0.37 µM | TGI (SF-268 CNS): 14.7 µM | GI50 (SF-295 CNS): 0.613 µM | TGI (SF-295 CNS): 13.2 µM | GI50 (SF-539 CNS): 0.721 µM | TGI (SF-539 CNS): 8.19 µM | GI50 (SK-MEL-2 melanoma): 2.71 µM | TGI (SK-MEL-2 melanoma): 19.9 µM | GI50 (SK-MEL-28 melanoma): 0.389 µM | TGI (SK-MEL-28 melanoma): 15.1 µM | GI50 (SK-MEL-5 melanoma): 0.57 µM | TGI (SK-MEL-5 melanoma): 5.33 µM | GI50 (SK-OV-3 ovarian): 0.55 µM | TGI (SK-OV-3 ovarian): 19.1 µM | GI50 (SN12C renal): 1.23 µM | TGI (SN12C renal): 10.2 µM | GI50 (SNB-19 CNS): 0.89 µM | TGI (SNB-19 CNS): 24.3 µM | GI50 (SNB-75 CNS): 0.703 µM | TGI (SNB-75 CNS): 20.8 µM | GI50 (SR leukemia): 0.246 µM | TGI (SR leukemia): 1.76 µM | GI50 (SW-620 colon): 0.612 µM | TGI (SW-620 colon): 12.7 µM | GI50 (T-47D breast): 0.633 µM | TGI (T-47D breast): 9.62 µM | GI50 (TK-10 renal): 0.813 µM | TGI (TK-10 renal): > 48 µM | GI50 (U251 CNS): 0.335 µM | TGI (U251 CNS): 9.41 µM | GI50 (UACC-257 melanoma): 1.43 µM | TGI (UACC-257 melanoma): 7.54 µM | GI50 (UACC-62 melanoma): 0.331 µM | TGI (UACC-62 melanoma): 1.75 µM | GI50 (UO-31 renal): 0.346 µM | TGI (UO-31 renal): 7.73 µM
